Measured values published in patent US20040086535A1, “Novel antiviral acitivities of primate theta defensins and mammalian cathelicidins” (priority 2001, published 2004).
Read-outs that look alike come from different tables or passages of the source. No end group written: not given here.

Experiments:
[1] = test system: EIAV (MA-1 strain) in equine dermal cell line ED; experiment: EIAV infectivity, immunostaining of antigen-expressing cells at 40 h; type: cell-based, equine infectious anemia virus; settings: for effect on the EIAV virus titer: theta defensins
[2] = test system: HIV (pNL4-3 strain) in HeLa 37 cells; type: cell-based; settings: for anti-viral activity against HIV, numbers of HIV antigen positive cells (qualitative): theta defensins preincubated 15-30 minutes with HIV, HeLa cells, 40 h; for anti-retroviral activity of carboxy-terminal peptides (qualitative): HIV, 8 μg/ml, 40 h (FIG. 3B), preliminary studies
herpes simplex 1 (HSV-1) = experiment: HSV-1 plaque formation inhibition, virus preincubated with peptide; type: cell-based, herpes simplex virus 1
herpes simplex 2 (HSV-2) = experiment: HSV-2 plaque formation inhibition, virus preincubated with peptide; type: cell-based, herpes simplex virus 2
vaccinia virus = experiment: Vaccinia virus replication; type: cell-based; settings: similar concentrations
[3] = % helicity (circular dichroism); type: physicochemical; settings: for % helicity in Phos. Buffer: phosphate buffer; for % helicity in phosphate buffer + 40% TFE: phosphate buffer + 40% TFE (parenthetical value)
[4] = mice, lung instillation of 100 μg
[5] = Systemic toxicity in mice; settings: systemic dose of 5 mg/kg
EIAV (MA-1) = experiment: Time course of Ov-1 addition against EIAV, antigen immunostaining of monolayers; type: cell-based, equine infectious anemia virus; settings: 10 μg/ml
Protocol: Studies with EIAV investigating the mode of action of the Ov class antivirals indicate that the peptides are acting early within the viral life cycle, perhaps acting on the viral particle itself. Ten μg/ml of Ov-1 was added to virus stocks of MA-1 either before, at the time of infection or various times following infection. Virus and peptide was then removed from the media 48 h post infection and the infected cultures were maintained for an additional 5 days to allow spread of any virus that is present within the culture. Monolayers were then immunostained for EIAV antigen expression.

[6] = test system: adenovirus, a non-enveloped virus; experiment: Adenovirus infectivity; type: cell-based; settings: similar concentrations (6-8 μg/ml); data not shown
[7] = test system: primary human fibroblasts
cytomegalovirus (CMV) = experiment: CMV plaque formation / cytopathology in primary human fibroblasts; type: cell-based; settings: for CMV plaque formation: virus preincubated 1 h at 37° C., MOI approx. 5, 14 days post infection
[8] = mouse, in vivo, 5 mg/kg
[9] = test system: herpes viruses and retroviruses

GFCRCLCRRGVCRCICTR [RTD-1, rhesus monkey theta defensin]
effect on the EIAV virus titer [1]: no effect

GICRCICGRGICRCICGR [HTD-1, synthetic peptide specified from human pseudogene, human theta defensin 1]
effect on the EIAV virus titer [1]: no effect | enhancement of IC50 by circularization ([2]; oxidized, circularized versus oxidized form): about 10 fold | anti-viral activity against HIV, numbers of HIV antigen positive cells (qualitative) [2]: greatest anti-viral activity | anti-viral activity against HIV, numbers of HIV antigen positive cells (qualitative) ([2]; listed as human theta defensin-1): most effective

GVCRCLCRRGVCRCLCRR [RTD-3, rhesus monkey theta defensin]
anti-viral activity against HIV, numbers of HIV antigen positive cells (qualitative) [2]: greatest anti-viral activity | anti-viral activity against HIV, numbers of HIV antigen positive cells (qualitative) ([2]; listed as rhesus theta defensin-3): most effective

HIIKKYGPTILRIIRIIG-NH2 [Ov-6, 18 carboxyl-terminal amino acids of Ov-1]
anti-retroviral activity of carboxy-terminal peptides (qualitative) [2]: did not have appreciable anti-viral activity

IHIIKKYGPTILRIIRIIG-NH2 [Ov-5, carboxy-terminal 19-mer of Ov-1]
anti-retroviral activity of carboxy-terminal peptides (qualitative) [2]: have anti-retroviral activity

ISRLAGLLRKGGEKIGEKLKKIGQKIKNFFQKLVPQPEQ (listed as Mus musculus) [mCramp, a murine cathelicidin]
reduction of herpes simplex 1 replication (herpes simplex 1 (HSV-1)): approximately 75% | infectivity of EIAV (qualitative) [1]: consistently reduced the infectivity | infectivity of HIV (qualitative) [2]: consistently reduced the infectivity | reduction of herpes simplex 2 replication (herpes simplex 2 (HSV-2)): approximately 75% | inhibitory effect on vaccinia virus replication (vaccinia virus): no inhibitory effect

KIIHIIKKYGPTILRIIRIIG-NH2 [Ov-4, carboxy-terminal 21-mer of Ov-1]
anti-retroviral activity of carboxy-terminal peptides (qualitative) [2]: have anti-retroviral activity

KNLRRIIRKGIHIIKKYG [Ov-2 (G10)]
% helicity in Phos. Buffer [3]: 7.4% | % helicity in phosphate buffer + 40% TFE [3]: 50.4%

KNLRRIIRKIIHIIKKYG [Ov-2, KNLRRIIRKIIHIIKKYG]
inflammation, cytokine elevation, blood markers [4]: No imflammation, cytokine elevation or increase in blood markers was detected | adverse effects [5]: no adverse effects

KNLRRIIRKIIHIIKKYGPTILRIIRIIG-NH2 [Ov-1]
outcome of culture (qualitative) (EIAV (MA-1); added 30 minutes or later following virus infection): resulted in infection and spread of the virus throughout the monolayer | effectiveness in inhibiting virus replication (EIAV (MA-1); added during preincubation or at the time of infection): 100% | effect on infectivity of adenovirus [6]: < 10 fold | effect on the monolayer of primary human fibroblasts [7]: little to no effect | CMV plaque formation (cytomegalovirus (CMV); 5 μg/ml): Plaque formation and accompanying monolayer disintegration can be observed | CMV plaque formation (cytomegalovirus (CMV); 20 μg/ml): No plaque formation was detected | CMV plaque formation (qualitative) (cytomegalovirus (CMV); 14 days): reduced plaque formation | inhibition of HSV-1 plaque formation (herpes simplex 1 (HSV-1); 6 μg/ml peptide): 3-6 fold | inhibition of HSV-1 plaque formation (herpes simplex 1 (HSV-1); 18 μg/ml peptide): approximately 100 fold | decrease of EIAV infectivity ([1]; 6-8 μg/ml peptide): greater than 100 fold | adverse effects [8]: no adverse effects | effective LD50 for inhibiting herpes viruses and retroviruses [9]: approximately 3 μg/ml | decrease of HIV infectivity ([2]; 6-8 μg/ml peptide): greater than 100 fold | inhibition of HSV-2 plaque formation (herpes simplex 2 (HSV-2); 6 μg/ml peptide): 3-6 fold | inhibition of HSV-2 plaque formation (herpes simplex 2 (HSV-2); 18 μg/ml peptide): approximately 100 fold | % helicity in Phos. Buffer [3]: 43.9% | % helicity in phosphate buffer + 40% TFE [3]: 97.9%

KNLRRITRKIIHIIKKYG [Ov-2 (T7)]
% helicity in Phos. Buffer [3]: 8.0% | % helicity in phosphate buffer + 40% TFE [3]: 66.8%

LRRIIRKIIHIIKK-NH2 [Ov-3, LRRIIRKIIHIIKK-NH2]
adverse effects [5]: no adverse effects
